# Laboratory results as given in ChEMBL document CHEMBL1152257, “New diterpenoids and the bioactivity of Erythrophleum fordii” (Bioorg Med Chem, 2008).
# pIC50: −log10 of the molar value.
# Key:
# [1] = test system: BV-2; assay: Inhibition of NADPH oxidase in LPS-induced mouse BV2 cells assessed as NOX-dependent ROS production at 50 uM; type: cell-based
# [2] = biological target: T1, Nitric oxide synthase, inducible (Mus musculus, UniProt P29477); assay: Inhibition of iNOS-mediated NO production in LPS-induced mouse BV2 cells; type: cell-based, BV-2
# T1 sequence (P29477 whole entry): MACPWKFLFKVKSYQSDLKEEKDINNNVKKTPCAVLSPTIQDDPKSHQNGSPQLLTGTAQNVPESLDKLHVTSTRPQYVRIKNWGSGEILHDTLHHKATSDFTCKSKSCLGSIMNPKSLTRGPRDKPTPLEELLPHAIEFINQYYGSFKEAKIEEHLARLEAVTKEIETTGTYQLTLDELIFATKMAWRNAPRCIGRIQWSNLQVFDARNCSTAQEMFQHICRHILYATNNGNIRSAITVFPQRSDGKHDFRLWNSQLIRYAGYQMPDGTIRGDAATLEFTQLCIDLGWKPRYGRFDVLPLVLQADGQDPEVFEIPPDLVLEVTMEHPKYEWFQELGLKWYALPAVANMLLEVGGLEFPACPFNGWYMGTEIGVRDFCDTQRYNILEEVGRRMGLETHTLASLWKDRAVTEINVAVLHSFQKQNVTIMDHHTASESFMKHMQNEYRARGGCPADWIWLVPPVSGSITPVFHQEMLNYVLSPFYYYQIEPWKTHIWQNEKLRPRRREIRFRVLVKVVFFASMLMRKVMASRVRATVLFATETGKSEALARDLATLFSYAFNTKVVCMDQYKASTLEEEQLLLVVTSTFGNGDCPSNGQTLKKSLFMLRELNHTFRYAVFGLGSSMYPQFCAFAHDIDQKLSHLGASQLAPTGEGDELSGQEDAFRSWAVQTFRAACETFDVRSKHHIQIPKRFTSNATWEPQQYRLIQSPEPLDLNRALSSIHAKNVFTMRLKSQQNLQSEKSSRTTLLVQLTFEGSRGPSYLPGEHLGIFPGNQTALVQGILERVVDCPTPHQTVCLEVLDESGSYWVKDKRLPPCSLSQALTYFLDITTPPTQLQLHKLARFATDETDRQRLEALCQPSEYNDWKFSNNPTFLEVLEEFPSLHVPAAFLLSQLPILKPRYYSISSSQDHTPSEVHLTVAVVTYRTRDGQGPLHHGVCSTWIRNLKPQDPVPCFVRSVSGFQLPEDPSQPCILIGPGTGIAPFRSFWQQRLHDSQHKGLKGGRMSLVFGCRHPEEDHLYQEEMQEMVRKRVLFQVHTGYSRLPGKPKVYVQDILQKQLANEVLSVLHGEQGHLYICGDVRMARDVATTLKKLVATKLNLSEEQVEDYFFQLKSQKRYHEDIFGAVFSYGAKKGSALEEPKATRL
# [3] = test system: Radical scavenging activity; assay: Antioxidant activity assessed as DPPH radical scavenging activity at 50 uM; type: functional
Compound,inhibition [1],pIC50 [2],Activity [3]
CC[C@H](CC[C@@H](C)[C@H]1CC[C@H]2[C@@H]3[C@@H](O)C=C4C[C@@H](O)CC[C@]4(C)[C@H]3CC[C@]12C)C(C)C,17.1%,< 4.30,–
CC1(C)CC[C@]2(C)CC[C@]3(C)C(=CC[C@@H]4[C@@]5(C)CCC(=O)C(C)(C)[C@@H]5CC[C@]43C)[C@@H]2C1,0%,< 4.30,–
CC[C@H](CC[C@@H](C)[C@H]1CC[C@H]2[C@@H]3C[C@@H](O)C4=C[C@@H](O)CC[C@]4(C)[C@H]3CC[C@]12C)C(C)C,1.6%,< 4.30,–
CC[C@H](/C=C/[C@@H](C)[C@H]1CC[C@H]2C3=CC[C@H]4C[C@@H](O)CC[C@]4(C)[C@H]3CC[C@]12C)C(C)C,8.7%,< 4.30,–
C[C@@H](O)/C=C/[C@@]1(O)C(C)(C)C[C@H](O)C[C@@]1(C)O,25.2%,< 4.30,–
C[C@@H]1O[C@@H](Oc2c(-c3ccc(O)cc3)oc3cc(O)cc(O)c3c2=O)[C@H](O)[C@H](O)[C@H]1O,6%,–,–
Cc1c(C)c2c(c(C)c1O)CCC(C)(C(=O)O)O2 (stereo unspecified),–,–,85.7%
c1ccc2c(c1)[I+]c1ccccc1-2,85.1%,–,–
C=CC(C)(C)c1[nH]c2c(CC=C(C)C)cc(CC=C(C)C)cc2c1C[C@@H]1NC(=O)[C@H](C)NC1=O [ECHINULIN],8.8%,< 4.30,–
C[C@H]1C(=O)CC[C@@H]2[C@]1(C)CC[C@H]1[C@@]2(C)CC[C@@]2(C)[C@@H]3CC(C)(C)CC[C@]3(C)CC[C@]12C [FRIEDELINE],4.2%,< 4.30,–
O=C(O)c1cc(O)c(O)c(O)c1 [GALLIC ACID],21.5%,< 4.30,85.6%
CC(=O)O[C@H]1CC[C@@H]2C(=CC[C@H]3[C@@]2(C)CC[C@@]2(C)[C@@H]4CC(C)(C)CC[C@]4(C)CC[C@]32C)C1(C)C [GLUTINOL ACETATE],10.8%,< 4.30,–
CC1(C)CC[C@]2(C)CC[C@]3(C)[C@H]4CC=C5[C@@H](CC[C@H](O)C5(C)C)[C@]4(C)CC[C@@]3(C)[C@@H]2C1 [GLUTINOL],19.2%,< 4.30,–
CC1(C)CC[C@]2(C)CC[C@]3(C)[C@H]4CC=C5[C@@H](CCC(=O)C5(C)C)[C@]4(C)CC[C@@]3(C)[C@@H]2C1 [GLUTINONE],6.6%,< 4.30,–
CO[C@H]1[C@H](O)[C@@H](O)[C@@H](O)[C@H](O)[C@@H]1O [METHYLINOSITOL],16.5%,< 4.30,–
C[C@@H]1[C@@H](O)CC[C@]2(C)[C@H]3CC/C(=C\C(=O)O)[C@H](C)[C@@H]3[C@@H](O)C(=O)[C@@H]12 [NORERYTHROFORDIN A],8.6%,< 4.30,–
CC1(C)CC[C@]2(C)CC=C3[C@]4(C)CC[C@H]5C(C)(C)[C@@H](O)CC[C@]5(C)[C@H]4CC[C@@]3(C)[C@@H]2C1 [TARAXEROL],11.6%,4.62,–
CC1(C)CC[C@]2(C)CC=C3[C@]4(C)CC[C@H]5C(C)(C)C(=O)CC[C@]5(C)[C@H]4CC[C@@]3(C)[C@@H]2C1 [TARAXERONE],5.2%,4.33,–
CC(=O)O[C@H]1CC[C@]2(C)[C@H]3CC=C4[C@@H]5CC(C)(C)CC[C@]5(C)CC[C@@]4(C)[C@]3(C)CC[C@H]2C1(C)C [beta-AMYRIN ACETATE],9.2%,< 4.30,–
